# Results published in patent publication US20110028509A1, “Sulfonamides” (MERCK SERONO SA, priority 2008, published 2011).
# Tests used:
# CXCR3 [1] = biological target: T1, CXCR3 (Homo sapiens, UniProt P49682); experiment: Chemotaxis assay ITAC (CXCL11), L1.2-CXCR3 cells; assay type: cell-based; set-up: expressed in transfected cells; conditions: 1 nM CXCL11 (I-TAC), 4 hours
# T1 sequence (P49682 1-368): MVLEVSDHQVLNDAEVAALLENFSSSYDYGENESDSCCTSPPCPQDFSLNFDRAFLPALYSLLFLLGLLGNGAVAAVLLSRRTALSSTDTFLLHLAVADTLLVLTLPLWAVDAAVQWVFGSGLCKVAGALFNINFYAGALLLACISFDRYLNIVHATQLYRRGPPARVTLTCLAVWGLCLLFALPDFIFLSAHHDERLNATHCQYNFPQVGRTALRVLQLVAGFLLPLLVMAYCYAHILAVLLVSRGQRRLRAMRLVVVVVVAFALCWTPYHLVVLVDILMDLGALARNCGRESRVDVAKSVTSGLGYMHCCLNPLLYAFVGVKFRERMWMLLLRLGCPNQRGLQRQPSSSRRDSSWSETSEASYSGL
# Procedure: Human CXCR3 cDNA was amplified by PCR from a human cells cDNA library (Clontech) and subcloned into pcDNA3.1 (Invitrogen). Murine pre-B L1.2 cells were transfected with hCXCR3-pcDNA3.1 and were grown at 37° C., 5% CO2 in RPMI 1640 medium (Invitrogen, USA) supplemented with 5% heat inactivated fetal calf serum (Cancerra, Australia), 2 mM glutamine (Invitrogen), 50 units ml−1 penicillin, 50 μml−1 streptomycin. Stable transfectant clonal populations were selected using 800 μg/ml geneticin.
# L1.2-CXCR3 cells were grown for 24 hours at 0.5×10^6 cells/ml in chemotaxis medium containing 5 mM butyric acid (Sigma). Compounds were on one hand mixed with 1 nM of CXCL11 (I-TAC) in phenol-red free RPMI 1640 (invitrogen) supplemented with 5% fetal bovine serum in presence of 1% DMSO. The CXCL11/compounds mixture was then added to lower chambers of chemotaxis 96 well microplates (neuroprobe), and framed filters ([…] pore size) were put on top of the lower chambers. Compounds were on the other hand mixed with L1.2 CXCR3 cells and incubated in chemotaxis medium at 1.5×10^6 cells/ml in presence of 1% DMSO at 37° C., 5% CO2 for 30 minutes. Cells/compounds mixture was then added on top of the frame filters and migration was performed at 37° C., 5% CO2 for 4 hours. The number of migrated cells in the bottom chamber was determined using the CyQuant GR dye (Molecular Probe), according to the manufacturer.
# CXCR3 [2] = biological target: T1, CXCR3; experiment: CXCR3 Ca2+ mobilization (FLIPR), stable hCXCR3-CHO cell line, I-TAC stimulated; assay type: cell-based; set-up: host or cells: CHO cells stably expressing hCXCR3; conditions: hCXCR3-CHO cells, I-TAC 100 nM stimulated Ca2+ response; read-out: Ca-ITAC
# Procedure: Human chinese hamster ovary (CHO) cell line stably expressing hCXCR3 was purchased from Euroscreen (Belgium) and culture in HAM's F12 (Invitrogen) containing 10% heat inactivated fetal calf serum (Cancerra, Australia), 50 units ml−1 penicillin, 50 μml−1 streptomycin, (Invitrogen, USA) and 400 μg/ml geneticin (G418) (Calbiochem, San Diego), according to the manufacturer.
# CXCR3Ca^2+ mobilization was measured using a stable hCXCR3—CHO cell line and a microtiter-plate based assay using FLIPR^TETRA™ (Molecular Devices). In more detail, cells were harvested and plated into black 384-well plates (Becton-Dickinson) at a density of 15 000 cells per well and grown in the incubator for 18 hours. On the next day the media was aspirated and replaced with the cell loading buffer (HBSS—(Invitrogen) based buffer containing calcium indicator and signal enhancer from a commercial Ca2+ assay kit (Becton Dickinson). The plates were incubated for 60 minutes in the incubator, the test compounds were added and the plates equilibrated for 20 minutes at room temperature.
# Plates were placed into FLIPR and the CXCR3 agonist (I-TAC, 100 nM) stimulated fluorescence change was quantitated. The activity of CXCR3 antagonists was determined as percent of the CXCR3 ligand I-TAC in the absence of the test compounds (=100% activity).
Structure (SMILES),IC50 (CXCR3 [1]) [µM],IC50 (CXCR3 [2]) [µM]
"O=S(=O)(c1ccc(Cl)cc1)N(Cc1ccc(-c2nnn[nH]2)cc1)Cc1cccnc1 [Example 71, 4-chloro-N-(pyridin-3-ylmethyl)-N-[4-(2H-tetrazol-5yl)benzyl]benzene sulfonamide]",1.54,16
"Cc1nc(CN(Cc2ccc(-c3nnn[nH]3)cc2)S(=O)(=O)c2ccc(Cl)cc2)no1 [Example 73, 4-chloro-N-(5-methyl-1,2,4-oxadiazol-3-ylmethyl)-N-[4-(2H-tetrazol-5yl)benzyl]benzene sulfonamide]",3.24,12
"O=S(=O)(c1ccc(Cl)cc1)N(Cc1ccc(-c2nnn[nH]2)cc1)Cc1nccc2ccccc12 [Example 74, 4-chloro-N-(isoquinolin-1-ylmethyl)-N-[4-(2H-tetrazol-5yl)benzyl]benzene sulfonamide]",0.666,2
O=S(=O)(c1ccc(Cl)cc1)N(Cc1ccc(-c2nnn[nH]2)cc1)Cc1ccc2ccccc2n1 [Example 75],2.52,2
CCOc1ccc(S(=O)(=O)N(Cc2ccc(C(=O)N[C@H](CO)Cc3ccccc3)cc2)Cc2ccccn2)cc1 [Example 87],0.76,17
CCOc1ccc(S(=O)(=O)N(Cc2ccc(C(=O)N[C@H]3[C@@H]4CN(C(=O)OC(C)(C)C)C[C@@H]43)cc2)Cc2cccnc2)cc1 [Example 94],0.26,2
N#Cc1ccc(S(=O)(=O)N(Cc2ccc(C(=O)NCCc3ccc(S(N)(=O)=O)cc3)cc2)Cc2ccccn2)cc1 [Example 99],1.03,1.45
N#Cc1ccc(S(=O)(=O)N(Cc2ccc(C(=O)N[C@@H](Cc3ccccc3)C(N)=O)cc2)Cc2ccccn2)cc1 [Example 100],0.63,0.2
CC(C)(C)OC(=O)N1C[C@@H]2[C@H](C1)[C@H]2NC(=O)c1ccc(CN(Cc2ccccn2)S(=O)(=O)c2ccc(Cl)cc2)cc1 [Example 105],0.07,0.02
CC(C)(C)OC(=O)N1C[C@@H]2[C@H](C1)[C@H]2NC(=O)c1ccc(CN(Cc2ccccc2)S(=O)(=O)c2ccc(Cl)cc2)cc1 [Example 106],0.51,0.3
CCOc1ccc(S(=O)(=O)N(Cc2ccc(C(=O)N[C@H]3[C@@H]4CN(C(C)=O)C[C@@H]43)cc2)Cc2ccccn2)cc1 [Example 107],2.07,5.5
N#Cc1ccc(S(=O)(=O)N(Cc2ccc(C(=O)NCC(O)c3ccccc3)cc2)Cc2cccnc2)cc1 (centres unmarked) [Example 109],0.13,0.75
N#Cc1ccc(S(=O)(=O)N(Cc2ccc(C(=O)NCCc3cccc(Cl)c3)cc2)Cc2cccnc2)cc1 [Example 110],0.39,0.75
N#Cc1ccc(S(=O)(=O)N(Cc2ccc(C(=O)NC3(c4ccccc4)CC3)cc2)Cc2cccnc2)cc1 [Example 113],1.3,0.32
N#Cc1ccc(S(=O)(=O)N(Cc2ccc(C(=O)NC(CO)C(O)c3ccccc3)cc2)Cc2cccnc2)cc1 (centres unmarked) [Example 114],2.5,2
CC(=O)N1C[C@@H]2[C@H](C1)[C@H]2NC(=O)c1ccc(CN(Cc2ccccc2)S(=O)(=O)c2ccc(Cl)cc2)cc1 [Example 118],2.61,3
CC(=O)N1C[C@@H]2[C@H](C1)[C@H]2NC(=O)c1ccc(CN(Cc2ccccn2)S(=O)(=O)c2ccc(C#N)cc2)cc1 [Example 119],2.14,0.87
O=S(=O)(c1ccc(OC(F)(F)F)cc1)N(Cc1ccc(-c2nnn[nH]2)cc1)Cc1ccccn1 [Example 120],4.47,0.2
O=S(=O)(c1ccc(Cl)cc1)N(Cc1ccccc1)Cc1ccc(-c2nnn[nH]2)cc1 [Example 121],3.89,3
O=C(NC1(c2cccc(Cl)c2)CC1)c1ccc(CN(Cc2ccccn2)S(=O)(=O)c2ccc(Cl)cc2)cc1 [Example 122],0.24,0.6

Structure (SMILES),IC50 (CXCR3 [1]) [µM],IC50 (CXCR3 [2]) [µM]
N#Cc1ccc(S(=O)(=O)N(Cc2ccc(C(=O)NC3(c4cccc(Cl)c4)CC3)cc2)Cc2ccccn2)cc1 [Example 123],0.06,0.3
CCOc1ccc(S(=O)(=O)N(Cc2ccc(C(=O)NC3(c4cccc(Cl)c4)CC3)cc2)Cc2ccccn2)cc1 [Example 124],0.16,0.5
O=C(NC1(c2ccc(Cl)cc2)CC1)c1ccc(CN(Cc2ccccn2)S(=O)(=O)c2ccc(Cl)cc2)cc1 [Example 125],0.35,0.4
N#Cc1ccc(S(=O)(=O)N(Cc2ccc(C(=O)NC3(c4ccc(Cl)cc4)CC3)cc2)Cc2ccccn2)cc1 [Example 126],0.17,0.7
CCOc1ccc(S(=O)(=O)N(Cc2ccc(C(=O)NC3(c4ccc(Cl)cc4)CC3)cc2)Cc2ccccn2)cc1 [Example 127],0.38,0.5
COC(=O)c1ccc(CNC(=O)c2ccc(CN(Cc3ccccn3)S(=O)(=O)c3ccc(Cl)cc3)cc2)cc1 [Example 132],0.27,0.9
N#Cc1ccc(S(=O)(=O)N(Cc2ccc(C(=O)NCc3ccccn3)cc2)Cc2ccccn2)cc1 [Example 135],0.75,0.9
N#Cc1ccc(S(=O)(=O)N(Cc2ccc(C(=O)NCc3cccnc3)cc2)Cc2ccccn2)cc1 [Example 136],0.93,8
N#Cc1ccc(S(=O)(=O)N(Cc2ccc(C(=O)NCc3ccncc3)cc2)Cc2ccccn2)cc1 [Example 137],4.31,3
N#Cc1ccc(S(=O)(=O)N(Cc2ccc(C(=O)NCc3ccccc3)cc2)Cc2ccccn2)cc1 [Example 138],0.06,0.1
Cc1nnc(CNC(=O)c2ccc(CN(Cc3ccccn3)S(=O)(=O)c3ccc(C#N)cc3)cc2)o1 [Example 142],4.18,10
Cn1c(CNC(=O)c2ccc(CN(Cc3ccccn3)S(=O)(=O)c3ccc(C#N)cc3)cc2)nc2ccccc21 [Example 143],1,0.4
COC(=O)[C@@H](Cc1ccccc1)NC(=O)c1ccc(CN(Cc2ccccn2)S(=O)(=O)c2ccc(Cl)cc2)cc1 [Example 145],0.4,2
COC(=O)C(NC(=O)c1ccc(CN(Cc2ccccn2)S(=O)(=O)c2ccc(Cl)cc2)cc1)c1ccc(F)c(F)c1 (centres unmarked) [Example 147],0.082,0.4
"O=C(NC(C(=O)O)c1ccc(F)c(F)c1)c1ccc(CN(Cc2ccccn2)S(=O)(=O)c2ccc(Cl)cc2)cc1 (centres unmarked) [Example 149, (4-{[(4-Chloro-benzenesulfonyl)-pyridin-2-ylmethyl-amino]-methyl}-benzoylamino)-(3,4-difluoro-phenyl)-acetic acid]",0.073,0.1
COC(=O)c1ccc(S(=O)(=O)N(Cc2ccc(C(=O)NC3(c4ccccc4)CC3)cc2)Cc2ccccn2)cc1 [Example 150],0.01,0.3
N#Cc1ccc(S(=O)(=O)N(Cc2ccc([N+](=O)[O-])cc2)Cc2ccccn2)cc1 [Example 158],4.8,1
O=S(=O)(c1cccc(-c2ccccc2)c1)N(Cc1ccc(-c2nnn[nH]2)cc1)Cc1ccccn1 [Example 166],9.05,1.43
C[C@@H](c1ccc(NC(=O)C2(c3ccccc3)CC2)cc1)N(Cc1ccccn1)S(=O)(=O)c1ccc(C#N)cc1 [Example 167],1.96,0.25
CC(=O)OC(C(=O)Nc1ccc(CN(Cc2ccccn2)S(=O)(=O)c2ccc(Cl)cc2)cc1)c1ccccc1 (centres unmarked) [Example 169],0.01,0.7
